Measured values published in patent US20040121965A1, “Method of treating resistant tumors” (Wyeth Holdings Corporation, priority 2002, published 2004).
Where two headings read alike, the source gives them in different places.

Tests used:
KB-3-1 = assay: Cell survival assay (SRB), KB-3-1; type: cell-based, human; conditions: Homo sapiens, KB 3-1, KB-3-1 cells (paclitaxel-sensitive parent); read-out: In vitro IC50 (nM) KB-3-1
Excerpt: Cells lines with previously known mechanisms of resistance. […] Res. 8: 207-218,1996); KB-3-1 (parental derived from an epidermoid carcinoma), KB-8.5, KB-V1 (Akiyama S-I, Fojo A, Hanover J A, Pastan I, Gottesman M M. Isolation and genetic characterization of human KB cell lines resistant to multiple drugs. Somatic Cell Mol. Gen., 11: 117-126,1985; Shen D-W, Cardarelli C, Hwang J, Cornwell M, Richert N, Ishii S, Pastan I, Gottesman MM. […] J. Biol. Chem., 261: 7762-7770, 1986); and HL-60 (parental derived from human leukemia) and HL60/AR (McGrath T., Center M. S. Adriamycin resistance in HL60 cells in the absence of detectable P-glycoprotein. Biochem. Res. Commun., 145:1171-1176,1987); A549 and A549.EpoB40 (He L., Yang C.-P.H., Horwitz S. B. Mutations in p-tubulin map to domains involved in regulation of microtubule stability in epothilone-resistant cell lines. Molecular Cancer Therapeutics. 1: 3-10, 2001). HCT-15 human colon carcinoma and DLD-1 human colon carcinoma are obtained from American Tissue Culture Collection. The MX-1W carcinoma is a Wyeth variant orginally obtained as MX-1 breast carcinoma from the National Cancer Institute. Cell lines selected for resistance to Representative Example 129. KB-3-1 cells are selected for resistance to Example 129 by chronically exposing cells to increasing concentrations of Example 129.
2.2. Cell Survival Assay: Standard Pharmacological Test Procedure. The concentration of candidate inhibitor required to inhibit 50% of cell growth (IC50) is done according to previously reported methods. […] Compounds are serially diluted into media as 2× stocks and 100 μl added to cells in duplicate. Compounds are incubated with cells for 3 days. At the end of the incubation period the sulforhodamine B (SRB) assay, which measures protein content as an assessment of cell survival, is performed as described previously (Skehan P, Storeng R, Scudiero D, Monks A, McMahon J, Vistica D, Warren J T, Bokesch H, Kenney S, Boyd MR. New calorimetric cytotoxicity assay for anticancer-drug screening. J Natl Cancer Inst 1990 Jul 4;82(13):1107-12) with some modification as follows. For KB-3-1 cells with 20% FCS, media is gently decanted and replaced with 200 μl of serum-free media mixed with cold 50% TCA for a final concentration of 10% TCA. The plates are incubated for 1 hr at 4° C., followed by washing 5 times in cold distilled water, then air dried overnight. The fixed cells are stained for 10 min with 80 μl of 0.04% SRB solution prepared in 1% glacial acetic acid. Stain is discarded and plates washed 5 times in 1% glacial acetic acid, then air-dried until completely dry. Stained cell product is dissolved in 150 μl of 10 mM Trizma Base and placed on a shaker for 20 minutes until fully dissolved. Absorbance is read on a Victor V multi-label plate reader (Perkin Elmer, Gaithersburg, Md.).

KB-8-5 (MDR1+) = assay: Cell survival assay (SRB), KB-8-5 (MDR1+); conditions: for IC50: Homo sapiens, MDR1, read-out: In vitro IC50 (nM) KB85
KB-V1 (MDR1++) = assay: Cell survival assay (SRB), KB-V1 (MDR1++); conditions: for IC50: Homo sapiens
[1] = read-out: In vitro IC50 (nM) KBV1

## CN[C@@H](C(=O)N[C@H](C(=O)N(C)[C@H](/C=C(\C)C(=O)O)C(C)C)C(C)(C)C)C(C)(C)c1ccccc1C [Example 36, N,β,β,2-Tetramethyl-D-phenylalanyl-N^1-[(1S,2E)-3-carboxy-1-isopropyl-2-butenyl]-N^1,3-dimethyl-L-valinamide]
KB-3-1
  IC50: 6 nM
KB-8-5 (MDR1+)
  Ratio KB85/KB: 2.3
  IC50: 13.8 nM
KB-V1 (MDR1++)
  Ratio KBV1/KB: 83.5
KB-V1 (MDR1++); [1]
  IC50: 501 nM

## CN[C@H](C(=O)N[C@H](C(=O)N(C)[C@H](/C=C(\C)C(=O)O)C(C)C)C(C)(C)C)C(C)(C)c1cccc(Br)c1 [Example 37, 3-bromo-N,β,β-trimethyl-L-phenylalanyl-N^1-[(1S,2E)-3-carboxy-1-isopropylbut-2-enyl]-N^1,3-dimethyl-L-valinamide]
KB-3-1
  IC50: 1.8 nM
KB-8-5 (MDR1+)
  Ratio KB85/KB: 2.3
  IC50: 4.1 nM
KB-V1 (MDR1++)
  Ratio KBV1/KB: 82.2
KB-V1 (MDR1++); [1]
  IC50: 148 nM

## CN[C@H](C(=O)N[C@H](C(=O)N(C)[C@H](/C=C(\C)C(=O)O)C(C)C)C(C)(C)C)C(C)(C)c1cccc(-c2ccccc2)c1 [Example 39, 3-phenyl-N,β,β-trimethyl-L-phenylalanyl-N^1-[(1S,2E)-3-carboxy-1-isopropylbut-2-enyl]-N^1,3-dimethyl-L-valinamide]
KB-3-1
  IC50: 1.9 nM
KB-8-5 (MDR1+)
  Ratio KB85/KB: 2.8
  IC50: 5.4 nM
KB-V1 (MDR1++)
  Ratio KBV1/KB: 78.4
KB-V1 (MDR1++); [1]
  IC50: 149 nM

## CN[C@H](C(=O)N[C@H](C(=O)N(C)[C@H](/C=C(\C)C(=O)O)C(C)C)C(C)(C)C)C(C)(C)c1ccc(Br)cc1 [Example 43, 4-bromo-N,β,β-trimethylphenylalanyl-N^1-[(1S,2E)-3-carboxy-1-isopropyl-2-butenyl]-N^1,3-dimethyl-L-valinamide]
KB-3-1
  IC50: 1.5 nM
KB-8-5 (MDR1+)
  Ratio KB85/KB: 2.9
  IC50: 4.4 nM
KB-V1 (MDR1++)
  Ratio KBV1/KB: 69.8
KB-V1 (MDR1++); [1]
  IC50: 105 nM

## CN[C@H](C(=O)N[C@H](C(=O)N(C)[C@H](/C=C(\C)C(=O)O)C(C)C)C(C)(C)C)C(C)(C)c1ccc(C(=O)O)cc1 [Example 45, 4-carboxy-N,β,β-trimethylphenylalanyl-N^1-[(1S,2E)-3-carboxy-1-isopropylbut-2-enyl]-N^1,3-dimethyl-L-valinamide]
KB-3-1
  IC50: 680 nM
KB-8-5 (MDR1+)
  Ratio KB85/KB: 2.3
  IC50: 1530 nM
KB-V1 (MDR1++); read-out: In vitro IC50 KBV1
  IC50: > 3000 nM

## CN[C@H](C(=O)N[C@H](C(=O)N(C)[C@H](/C=C(\C)C(=O)O)C(C)C)C(C)(C)C)C(C)(C)c1cccc(OC)c1 [Example 46, 3-Methoxy-N,β,β-trimethylphenylalanyl-N^1-[(1S,2E)-3-carboxy-1-isopropyl-2-butenyl]-N^1,3-dimethyl-L-valinamide]
KB-3-1
  IC50: 3.5 nM
KB-8-5 (MDR1+)
  Ratio KB85/KB: 1.7
  IC50: 5.9 nM
KB-V1 (MDR1++)
  Ratio KBV1/KB: 64.0
KB-V1 (MDR1++); [1]
  IC50: 224 nM

## CN[C@H](C(=O)N[C@H](C(=O)N(C)[C@H](/C=C(\C)C(=O)O)C(C)C)C(C)(C)C)C(C)(C)c1cccc(O)c1 [Example 47, 3-Hydroxy-N,β,β-trimethylphenylalanyl-N^1-[(1S,2E)-3-carboxy-1-isopropyl-2-butenyl]-N^1,3-dimethyl-L-valinamide]
KB-3-1
  IC50: 7 nM
KB-8-5 (MDR1+)
  Ratio KB85/KB: 5.4
  IC50: 37.5 nM
KB-V1 (MDR1++)
  Ratio KBV1/KB: 329.7
KB-V1 (MDR1++); [1]
  IC50: 2310 nM

## CN[C@H](C(=O)N[C@H](C(=O)N(C)[C@H](/C=C(\C)C(=O)O)C(C)C)C(C)(C)C)C(C)(C)Cc1ccccc1 [Example 48, N,3-Dimethyl-4-phenyl-L-valyl-N^1-[(1S,2E)-3-carboxy-1-isopropyl-2-butenyl]-N^1,3-dimethyl-L-valinamide]
KB-3-1
  IC50: 2.7 nM
KB-8-5 (MDR1+)
  Ratio KB85/KB: 2.2
  IC50: 6 nM
KB-V1 (MDR1++)
  Ratio KBV1/KB: 81.0
KB-V1 (MDR1++); [1]
  IC50: 219 nM

## CN[C@@H](C(=O)N[C@H](C(=O)N(C)[C@H](/C=C(\C)C(=O)O)C(C)C)C(C)(C)C)C(C)(C)Cc1ccccc1 [Example 49, N,3-dimethyl-4-phenyl-D-valyl-N^1-[(1S,2E)-3-carboxy-1-isopropyl-2-butenyl]-N^1,3-dimethyl-L-valinamide]
KB-3-1
  IC50: 20 nM
KB-8-5 (MDR1+)
  Ratio KB85/KB: 2.8
  IC50: 55 nM
KB-V1 (MDR1++)
  Ratio KBV1/KB: 99.8
KB-V1 (MDR1++); [1]
  IC50: 2000 nM

## CCCCCC(C)(C)[C@H](NC)C(=O)N[C@H](C(=O)N(C)[C@H](/C=C(\C)C(=O)O)C(C)C)C(C)(C)C [Example 50, (2E,4S)-4-[((2S)-2-{[(2S)-3,3-dimethyl-2-(methylamino)octanoyl]amino}-3,3-dimethylbutanoyl)(methyl)amino]-2,5-dimethyl-2-hexenoic acid]
KB-3-1
  IC50: 8.7 nM
KB-8-5 (MDR1+)
  Ratio KB85/KB: 2.2
  IC50: 19 nM
KB-V1 (MDR1++)
  Ratio KBV1/KB: 58.9
KB-V1 (MDR1++); [1]
  IC50: 513 nM

## CCCCCC(C)(C)[C@@H](NC)C(=O)N[C@H](C(=O)N(C)[C@H](/C=C(\C)C(=O)O)C(C)C)C(C)(C)C [Example 51, (2E,4S)-4-[((2S)-2-{[(2R)-3,3-dimethyl-2-(methylamino)octanoyl]amino}-3,3-dimethylbutanoyl)(methyl)amino]-2,5-dimethyl-2-hexenoic Acid]
KB-3-1
  IC50: 224 nM
KB-8-5 (MDR1+)
  Ratio KB85/KB: 1.6
  IC50: 363 nM
KB-V1 (MDR1++)
  Ratio KBV1/KB: 13.4
KB-V1 (MDR1++); [1]
  IC50: ≥ 3000 nM

## C/C(=C\[C@H](C(C)C)N(C)C(=O)[C@@H](NC(=O)[C@@H](N(C)CCO)C(C)(C)c1ccccc1)C(C)(C)C)C(=O)O [Example 53, N-(2-hydroxyethyl)-N,β,β-trimethyl-L-phenylalanyl-N^1-[(1S,2E)-3-carboxy-1-isopropylbut-2-enyl]-N^1,3-dimethyl-L-valinamide]
KB-3-1
  IC50: 44.7 nM
KB-8-5 (MDR1+)
  Ratio KB85/KB: 1.4
  IC50: 61.7 nM
KB-V1 (MDR1++)
  Ratio KBV1/KB: 67.1
KB-V1 (MDR1++); [1]
  IC50: ≥ 3000 nM

## CCOC(=O)/C(C)=C/[C@H](C(C)C)N(C)C(=O)[C@@H](NC(=O)[C@@H](NC)C(C)(C)c1ccccc1OC)C(C)(C)C [Example 54, 2-Methoxy-N,β,β-trimethyl-L-phenylalanyl-N^1-[(1S,2E)-4-ethoxy-1-isopropyl-3-methyl-4-oxo-2-butenyl]-N^1,3-dimethyl-L-valinamide]
KB-3-1
  IC50: 126 nM
KB-8-5 (MDR1+)
  Ratio KB85/KB: 4.8
  IC50: 602 nM
KB-V1 (MDR1++)
  Ratio KBV1/KB: 16.6
KB-V1 (MDR1++); [1]
  IC50: 2090 nM

## CN[C@H](C(=O)N[C@H](C(=O)N(C)[C@H](/C=C(\C)C(=O)O)C(C)C)C(C)(C)C)C(C)(C)c1ccccc1OC [Example 55, 2-Methoxy-N,β,β-trimethyl-L-phenylalanyl-N^1-[(1S,2E)-3-carboxy-1-isopropyl-2-butenyl]-N^1,3-dimethyl-L-valinamide]
KB-3-1
  IC50: 1.7 nM
KB-8-5 (MDR1+)
  Ratio KB85/KB: 2.6
  IC50: 4.4 nM
KB-V1 (MDR1++)
  Ratio KBV1/KB: 112.1
KB-V1 (MDR1++); [1]
  IC50: 190 nM

## CCOC(=O)/C(C)=C/[C@H](C(C)C)N(C)C(=O)[C@@H](NC(=O)[C@@H](NC)C(C)(C)c1ccc(OC)cc1)C(C)(C)C [Example 56, N,O,β,β-tetramethyl-L-tyrosyl-N^1-[(1S,2E)-4-ethoxy-1-isopropyl-3-methyl-4-oxo-2-butenyl]-N^1,3-dimethyl-L-valinamide]
KB-3-1
  IC50: 26.3 nM
KB-8-5 (MDR1+)
  Ratio KB85/KB: 18.2
  IC50: 479 nM
KB-V1 (MDR1++)
  Ratio KBV1/KB: 67.6
KB-V1 (MDR1++); [1]
  IC50: 1780 nM

## CCOC(=O)/C(C)=C/[C@H](C(C)C)N(C)C(=O)[C@@H](NC(=O)[C@@H](NC)C(C)(C)c1ccc(OC)cc1OC)C(C)(C)C [Example 58, 2-Methoxy-N,O,β,β,tetramethyl-L-tyrosyl-N^1-[(1S,2E)-4-ethoxy-1-isopropyl-3-methyl-4-oxo-2-butenyl]-N^1,3-dimethyl-L-valinamide]
KB-3-1
  IC50: 144 nM
KB-8-5 (MDR1+)
  Ratio KB85/KB: 11.7
  IC50: 1700 nM
KB-V1 (MDR1++)
  Ratio KBV1/KB: 20.8
KB-V1 (MDR1++); [1]
  IC50: ≥ 3000 nM

## CN[C@H](C(=O)N[C@H](C(=O)N(C)[C@H](/C=C(\C)C(=O)O)C(C)C)C(C)(C)C)C(C)(C)c1ccc(OC)cc1OC [Example 59, 2-Methoxy-N,O,β,β-tetramethyl-L-tyrosyl-N^1-[(1S,2E)-3-carboxy-1-isopropyl-2-butenyl]-N^1,3-dimethyl-L-valinamide]
KB-3-1
  IC50: 2.4 nM
KB-8-5 (MDR1+)
  Ratio KB85/KB: 5.5
  IC50: 13.2 nM
KB-V1 (MDR1++)
  Ratio KBV1/KB: 446.7
KB-V1 (MDR1++); [1]
  IC50: 1070 nM
